pIC50: −log10 of the molar value.
Tests used:
[1] = In Vitro Intrinsic Clearance; type: in vitro ADME; conditions: human liver microsomes, 1 μM compound, NADPH, scaled to human
Experimental: For in vitro metabolic stability experiments, test compounds were incubated with human liver microsomes at 37° C. The incubation mixture contained test compounds (1 μM), NADPH (2 mM), and human liver microsomes ([…]) in 100 mM phosphate buffer (pH 7.4). The mixture was pre-incubated for 2 min at 37° C. before the addition of NADPH. Reactions were commenced upon the addition of NADPH and quenched with ice-cold methanol at 0, 10, 20, and 30 min. Terminated incubation mixtures were analyzed using LC-MS/MS system. The analytical system consisted of a Shimadzu LC-30AD binary pump system and SIL-30AC autosampler (Shimadzu Scientific Instruments, Columbia, MD) coupled with a Sciex Triple Quad 6500+mass spectrometer from Applied Biosystems (Foster City, CA). […] Mobile phase A consisted of 0.1% formic acid in water, and mobile phase B consisted of 0.1% formic acid in acetonirile. The total LC-MS/MS runtime was 2.75 minutes with a flow rate of 0.75 mL/min. Peak area integrations and peak area ratio calculations were performed using Analyst software (version 1.6.3) from Applied Biosystems.
The in vitro intrinsic clearance, CLint, in vitro, was calculated from the t1/2 of test compound disappearance as CLint, in vitro=(0.693/t1/2)×(1/Cprotein), where Cprotein is the protein concentration during the incubation, and t1/2 was determined by the slope (k) of the log-linear regression analysis of the concentration versus time profiles; thus, t1/2ln2/k. The CLint, in vitro values were scaled to the in vivo values for human by using physiologically based scaling factors, hepatic microsomal protein concentrations (45 mg protein/g liver), and liver weights (21 g/kg body weight). The equation CLint=CLint, in vitro×(mg protein/g liver weight)×(g liver weight/kg body weight) was used. The in vivo hepatic clearance (CLH) was then calculated by using CLint and hepatic blood flow, Q (20 mL·min^−1kg^−1 in humans) in the well-stirred liver model disregarding all binding from CLH (Q×CLint)/(Q+CLint). The hepatic extraction ratio was calculated as CLH divided by Q.

KIT [2] = experiment: KIT Enzymatic Assay; type: biochemical; conditions: ratio KIT IC50 / JH2 V617F binding IC50
Experimental: (§1) The kinase assays were carried out at room temperature in assay buffer (HEPES 50 mM, pH 7.0, NaN3 0.02%, BSA 0.01%, Orthovanadate 0.1 mM, DTT 1 mM, MgCl2 10 mM) in a final volume of 10 μL. Testing compounds were prepared by serial dilution in DMSO and transferred to the plate wells by ECHO liquid handler (Labcyte) with 0.5% DMSO in the final assay. […]. Reactions were initiated by the addition of 5 μL ATP in assay buffer. The final 10 μL kinase reaction consists of 0.12 nM KIT, 1 mM ATP, 500 nM TK Substrate-biotin and SEB reagent 62.5 nM in assay buffer. […] The plates were then sealed and centrifuged at 1800 rpm for 2 minutes. After 60 minutes incubation at room temperature, the product activity was determined by measuring the fluorescence at 620 nm and 665 nm on Pherastar microplate reader (BMG Labtech). A ratio is calculated (665/620 nm) for each well. Wells with DMSO only were served as the positive controls and wells containing no ATP were used as negative controls. IC50 determination was performed by fitting the curve of percent control activity versus the log of the compound concentration using the GraphPad Prism 7.0 software.

FLT3 [3] = biological target: T1, FLT3 (Homo sapiens, UniProt P36888); experiment: FLT3 Enzymatic Assay; type: biochemical; conditions: HTRF kinase assay, 1 mM ATP
T1 sequence (P36888 27-993): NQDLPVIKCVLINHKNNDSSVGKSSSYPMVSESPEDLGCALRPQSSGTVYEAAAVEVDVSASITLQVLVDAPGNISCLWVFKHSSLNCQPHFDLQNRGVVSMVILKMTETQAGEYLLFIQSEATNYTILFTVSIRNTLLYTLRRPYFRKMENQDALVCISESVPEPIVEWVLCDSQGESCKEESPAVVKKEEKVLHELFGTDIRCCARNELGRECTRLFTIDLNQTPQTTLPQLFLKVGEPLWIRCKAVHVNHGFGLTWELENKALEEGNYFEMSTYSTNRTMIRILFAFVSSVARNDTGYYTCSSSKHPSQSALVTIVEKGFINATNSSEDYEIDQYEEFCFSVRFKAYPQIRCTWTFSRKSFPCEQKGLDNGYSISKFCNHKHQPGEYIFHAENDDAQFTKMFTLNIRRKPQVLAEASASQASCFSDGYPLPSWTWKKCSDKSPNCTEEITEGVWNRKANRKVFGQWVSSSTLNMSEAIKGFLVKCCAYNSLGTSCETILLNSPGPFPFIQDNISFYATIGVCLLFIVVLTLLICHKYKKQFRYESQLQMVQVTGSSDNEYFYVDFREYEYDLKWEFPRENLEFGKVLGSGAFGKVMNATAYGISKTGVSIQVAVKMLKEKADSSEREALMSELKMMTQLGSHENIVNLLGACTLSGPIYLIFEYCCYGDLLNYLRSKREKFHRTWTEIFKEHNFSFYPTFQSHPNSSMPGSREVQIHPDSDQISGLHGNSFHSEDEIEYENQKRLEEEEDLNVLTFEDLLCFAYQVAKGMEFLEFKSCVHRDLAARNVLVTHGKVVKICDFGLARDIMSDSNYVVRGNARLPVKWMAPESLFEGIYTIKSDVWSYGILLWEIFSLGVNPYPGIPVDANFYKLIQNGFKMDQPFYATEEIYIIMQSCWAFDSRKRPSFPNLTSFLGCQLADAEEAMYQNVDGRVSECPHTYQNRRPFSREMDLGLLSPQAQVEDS
Experimental: as §1, with “0.011” for “0.12”, “FLT3,” for “KIT,”

FLT3 [4] = experiment: FLT3 Enzymatic Assay; type: biochemical; conditions: ratio FLT3 IC50 / JH2 V617F binding IC50
Experimental: as §1, with “0.011” for “0.12”, “FLT3,” for “KIT,”

KIT [5] = biological target: KIT (Homo sapiens, UniProt P10721); experiment: KIT Enzymatic Assay; type: biochemical; conditions: HTRF kinase assay, 1 mM ATP
Sequence of KIT (Homo sapiens, UniProt P10721) (P10721 26-976, species assumed): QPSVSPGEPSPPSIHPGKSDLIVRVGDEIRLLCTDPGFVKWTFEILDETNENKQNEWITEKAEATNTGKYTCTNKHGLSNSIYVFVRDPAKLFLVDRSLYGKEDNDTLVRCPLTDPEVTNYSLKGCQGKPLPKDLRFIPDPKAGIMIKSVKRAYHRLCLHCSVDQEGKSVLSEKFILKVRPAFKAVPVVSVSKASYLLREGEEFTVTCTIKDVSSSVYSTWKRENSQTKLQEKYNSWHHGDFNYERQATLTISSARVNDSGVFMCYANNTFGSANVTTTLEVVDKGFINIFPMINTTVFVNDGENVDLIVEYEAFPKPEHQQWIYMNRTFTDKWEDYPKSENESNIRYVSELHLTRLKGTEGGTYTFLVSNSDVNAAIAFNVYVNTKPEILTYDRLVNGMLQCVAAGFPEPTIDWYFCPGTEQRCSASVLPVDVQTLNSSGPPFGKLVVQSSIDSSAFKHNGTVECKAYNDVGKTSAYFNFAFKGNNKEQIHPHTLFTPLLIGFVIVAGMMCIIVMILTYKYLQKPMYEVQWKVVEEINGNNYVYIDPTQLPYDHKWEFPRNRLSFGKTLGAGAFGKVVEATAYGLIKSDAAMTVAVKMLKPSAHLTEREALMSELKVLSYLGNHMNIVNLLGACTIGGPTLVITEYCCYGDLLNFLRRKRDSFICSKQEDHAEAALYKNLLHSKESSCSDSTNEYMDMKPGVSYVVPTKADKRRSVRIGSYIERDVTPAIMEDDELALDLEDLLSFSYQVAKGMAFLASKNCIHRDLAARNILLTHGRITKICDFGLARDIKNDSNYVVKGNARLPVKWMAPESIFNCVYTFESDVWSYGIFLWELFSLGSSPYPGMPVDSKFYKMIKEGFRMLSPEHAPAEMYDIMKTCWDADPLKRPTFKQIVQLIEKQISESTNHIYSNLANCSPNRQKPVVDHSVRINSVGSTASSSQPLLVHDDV
Experimental: as §1

SMILES: COc1nn(C)cc1-c1[nH]c2ncc3c(c2c1-c1ccc2c(cnn2C)c1)n(C1CCOCC1)c(=O)n3C [Comparative Example A, reference compound]
- h-IntCL [1]: ‡ ‡ ‡ (‡ ‡ ‡ refers to h-IntCL of >1 L/h/kg)
- Selectivity KIT/JH2 V617F (KIT [2]): * (* refers to selectivity of ≤500-fold)
- pIC50 (FLT3 [3]): 5.90 to 6.60
- Selectivity FLT3/JH2 V617F (FLT3 [4]): * (* refers to selectivity of ≤500-fold)

SMILES: [2H]C([2H])([2H])n1ncc2cc(-c3c(-c4cn(C)nc4OC)[nH]c4ncc5c(c34)n(C3CCOCC3)c(=O)n5C)ccc21 [Comparative Example B, reference compound]
- h-IntCL [1]: ‡ ‡ (‡ ‡ refers to h-IntCL of ≥0.7 L/h/kg to ≤1 L/h/kg)
- pIC50 (KIT [5]): 5.60 to 5.90
- Selectivity KIT/JH2 V617F (KIT [2]): ** (** refers to selectivity of >500-fold to ≤1500-fold)
- pIC50 (FLT3 [3]): 5.90 to 6.60
- Selectivity FLT3/JH2 V617F (FLT3 [4]): * (* refers to selectivity of ≤500-fold)

SMILES: Cn1cc(-c2[nH]c3ncc4c(c3c2-c2ccc3c(cnn3C)c2)n([C@H]2CC[C@@H](CC#N)CC2)c(=O)n4C)cn1 [Comparative Example C, reference compound]
- h-IntCL [1]: ‡ ‡ ‡ (‡ ‡ ‡ refers to h-IntCL of >1 L/h/kg)
- pIC50 (KIT [5]): 6.60 to 7.60
- Selectivity KIT/JH2 V617F (KIT [2]): * (* refers to selectivity of ≤500-fold)
- pIC50 (FLT3 [3]): ≥ 7.60
- Selectivity FLT3/JH2 V617F (FLT3 [4]): * (* refers to selectivity of ≤500-fold)

SMILES: COc1ccc(-c2c(-c3cnn(Cc4ccncc4)c3)[nH]c3ncc4c(c23)n(C2CCCC2)c(=O)n4C)cc1 [Comparative Example D, reference compound]
- h-IntCL [1]: ‡ ‡ ‡ (‡ ‡ ‡ refers to h-IntCL of >1 L/h/kg)

SMILES: COc1nn(C)cc1-c1[nH]c2ncc3c(c2c1-c1ccc2c(cnn2C)c1)n([C@H]1CC[C@@H](CC#N)CC1)c(=O)n3C [Comparative Example E, reference compound]
- h-IntCL [1]: ‡ ‡ ‡ (‡ ‡ ‡ refers to h-IntCL of >1 L/h/kg)
- Selectivity KIT/JH2 V617F (KIT [2]): *** (*** refers to selectivity of >1500-fold to ≤1750-fold)
- Selectivity FLT3/JH2 V617F (FLT3 [4]): * (* refers to selectivity of ≤500-fold)

— patent US20240190876A1, “Tricyclic Urea Compounds As JAK2 V617F Inhibitors” (Incyte Corporation, priority 2022, published 2024)
